# Measurements published in patent publication US6335443B1, “Chemical synthesis of exochelins” (Keystone Biomedical, Inc., priority 1998, dated 2002).
# System: ferri-Exochelin 758SM
# Assay: Capacity to remove iron from Ferri-Exochelin 758SM in the same vial (772SM(R) vs 772SM(S))
# Assay type: binding
# Conditions: Table 3; for % Iron-Saturation 0 hour / % Iron-Saturation 1 hour: 772SM(R), 772SM(S) and 758SM in the same vial; for % of Calculated Iron-Saturation at Equilibrium 0 hour / % of Calculated Iron-Saturation at Equilibrium 1 hour: same vial, assuming comparable affinities
# Experimental: To further assess the relative affinities of the stereoisomers desferri-Exochelin 772SM(R) and 772SM(S) for iron, their capacity to remove iron from a different exochelin species in the same vial were compared.
# In the experiment,15.6 μg of 1.1% iron-saturated synthetic Exochelin 772SM(R) and 17.4 μg of 1.0% iron-saturated synthetic Exochelin 772SM(S) was mixed with 13.5 μg of 100% iron-saturated native Exochelin 758SM.
# [1] = listed as synthetic Exochelin 772SM(R)
Structure (SMILES),% Iron-Saturation 0 hour [%],% of Calculated Iron-Saturation at Equilibrium 0 hour [%],% Iron-Saturation 1 hour [%],% Iron-Saturation 1 hour [1] [%],% of Calculated Iron-Saturation at Equilibrium 1 hour [%],% of Calculated Iron-Saturation at Equilibrium 1 hour [1] [%],% Iron-Saturation 1 hour (listed as Exochelin 772SM(S)) [%],% of Calculated Iron-Saturation at Equilibrium 1 hour (listed as Exochelin 772SM(S)) [%]
"COC(=O)CCCCCC(=O)N(O)CCCCC(NC(=O)C1COC(c2ccccc2O)=N1)C(=O)OC(C)CC(=O)NC1CCCCN(O)C1=O [Synthetic 772SM(R), Exochelin 772SM(R)]",1.1,3.7,28.2,28.2,94.3,94.3,,
"COC(=O)CCCCCC(=O)N(O)CCCCC(NC(=O)C1COC(c2ccccc2O)=N1)C(=O)OC(C)CC(=O)NC1CCCCN(O)C1=O [Synthetic 772SM(S), Exochelin 772SM(S)]",1.0,3.3,25.9,,86.6,,25.9,86.6
